Here are results for one compound from article PMC5546605 (PLoS ONE, 2017).

Structures are written as SMILES.

For experiment [1], the target named is T1, cellular prion protein (PrP^C) (Mus musculus, UniProt P04925).
T1 construct: gene Prnp
Description: biochemical. Type of experiment: binding.

Experiment [2] has as its target T2, cellular prion protein (PrP^C) (Homo sapiens, UniProt P04156).
T2 construct: gene PRNP
Description: biochemical. Type of experiment: binding.

T1 sequence (P04925 23-230 limits assumed): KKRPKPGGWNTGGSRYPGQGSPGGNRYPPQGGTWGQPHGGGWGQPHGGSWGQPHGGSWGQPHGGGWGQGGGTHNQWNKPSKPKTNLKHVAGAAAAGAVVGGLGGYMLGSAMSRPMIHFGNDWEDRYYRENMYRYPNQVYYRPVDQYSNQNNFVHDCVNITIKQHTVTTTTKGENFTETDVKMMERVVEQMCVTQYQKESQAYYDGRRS

Broadly, the Kd is the equilibrium constant for the complex coming apart. Low readings indicate higher affinity, high ones lower affinity. In the case of `CN(C)CCCN1c2ccccc2Sc2ccc(Cl)cc21` [CPZ, chlorpromazine], the Kd in experiment [1] was more than 100 µM; in experiment [2] it was 421 µM.
